The results in this text go back to article PMC6783924, “Alkaloid Lindoldhamine Inhibits Acid-Sensing Ion Channel 1a and Reveals Anti-Inflammatory Properties” (Toxins, 2019).

The assay addresses T1, acid-sensing ion channel isoform 1a (ASIC1a) (Rattus norvegicus, UniProt P55926).
T1 construct: gene Asic1
T1 sequence (P55926 1-526): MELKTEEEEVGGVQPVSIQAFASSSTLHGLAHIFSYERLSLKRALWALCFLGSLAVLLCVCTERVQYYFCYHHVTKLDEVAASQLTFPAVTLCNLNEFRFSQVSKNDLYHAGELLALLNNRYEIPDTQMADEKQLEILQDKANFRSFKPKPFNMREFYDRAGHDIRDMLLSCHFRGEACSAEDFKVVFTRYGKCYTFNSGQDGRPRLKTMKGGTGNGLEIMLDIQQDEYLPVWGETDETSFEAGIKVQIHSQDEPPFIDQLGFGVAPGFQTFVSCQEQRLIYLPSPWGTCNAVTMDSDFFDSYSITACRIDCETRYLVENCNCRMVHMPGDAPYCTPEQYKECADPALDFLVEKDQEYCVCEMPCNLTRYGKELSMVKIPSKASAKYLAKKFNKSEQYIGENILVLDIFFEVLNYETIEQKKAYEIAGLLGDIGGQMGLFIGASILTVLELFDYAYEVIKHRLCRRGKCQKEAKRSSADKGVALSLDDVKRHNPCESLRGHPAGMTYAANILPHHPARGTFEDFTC
As to the kind of experiment: two-electrode voltage clamp, Xenopus laevis oocytes expressing rat ASIC1a, pH […] stimulus from pH […]. The class given is cell-based. The note with it: read-out: pH 6.85.

With `COc1cc2c(cc1O)C(Cc1ccc(O)c(Oc3ccc(C[C@@H]4NCCc5cc(OC)c(O)cc54)cc3)c1)NCC2` (stereo partly shown) [LIN, lindoldhamine], the IC50 turned out to be 9 ± 0.3 µM.
